Non-standard residues stand in square brackets, D forms with d. Residues, ends and D or L forms follow the SMILES beside them. Aib = CC(C)(N)C(=O)O
What was measured:
Assay in all cases: MTT cytotoxicity assay, 72 hours (Example 13)
Format in all cases: cell-based, human
MOLT-4 (leukemia) = tested on: MOLT-4 (leukemia)
Experimental: (§1) The cytotoxic activity of other synthesized bombesin analogs was tested on eight human tumor cell lines namely HT-29, SW620, PTC (all colon), PA-1 (ovary), A549 (lung), HBL100(breast), MOLT-4 (leukemia) and DU145 (prostate). The tumor cells were collected at exponential growth phase and resuspended in medium (1.5×10^6) cells/ml in RPMI 1640 containing 10% FBS). 150 μl of medium was added to the wells of a 96-well tissue culture plate (Nunc, Denmark) followed by 30 μl of cell suspension. The plate was left in incubator (37° C., 5% CO2 overnight. 20 μl of the peptide (10^−7×10^×10M concentration) was added to marked wells of the 96-well plate. Each concentration was plated in cells served as blanks. A total volume of 200 μl was ensured in each well and plate was left in incubator (37° C., 5% CO2). After 72 hours of incubation an MTT assay was performed and percentage cytotoxicity was calculated with respect to control cells. Following tables show the cytotoxicity achieved on various cell lines at different concentrations.

HBL100 (breast) = details: HBL
Experimental: as §1

PTC (colon) = tested on: PTC (colon)
Experimental: as §1

SW620 (colon) = tested on: SW620 (colon)
Experimental: as §1

HT-29 (colon) = tested on: HT-29 (colon)
Experimental: as §1

PA-1 (ovary) = tested on: PA-1 (ovary)
Experimental: as §1

DU145 (prostate) = tested on: DU145 (prostate)
Experimental: as §1

A549 (lung) = tested on: A549 (lung)
Experimental: as §1

For CC(C)C[C@H](NC(=O)[C@H](Cc1c[nH]cn1)NC(=O)C(C)(C)NC(=O)[C@@H](NC(=O)[C@H](C)NC(=O)[C@@H](Cc1c[nH]c2ccccc12)NC(=O)[C@H](CCC(N)=O)NC(=O)[C@H](N)Cc1ccccc1)C(C)C)C(N)=O [SEQ ID: 5, D-Phe-Gln-D-Trp-Ala-Val-Aib-His-Leu-NH2] (H-[dF]Q[dW]AV[Aib]HL-NH2; N-terminus assumed), the “Percent Cytotoxicity” value (MOLT-4 (leukemia); MOLT4, 1 nM) was 6.4 ± 0.2%, the “Percent Cytotoxicity” value (MOLT-4 (leukemia); MOLT4, 10 nM) was 4.3 ± 0.6% and the “Percent Cytotoxicity” value (MOLT-4 (leukemia); MOLT4, 100 nM) was “NIL”. For the same compound, the “Percent Cytotoxicity” value (MOLT-4 (leukemia); MOLT4, 100 PM) was 8.7 ± 0.6%, the “Percent Cytotoxicity” value (HBL100 (breast); 1 nM) was 31.6 ± 5.3% and the “Percent Cytotoxicity” value (HBL100 (breast); 10 nM) was 16.7 ± 3.6%. For the same compound, the “Percent Cytotoxicity” value (HBL100 (breast); 100 nM) was 19.4 ± 4.5%, the “Percent Cytotoxicity” value (HBL100 (breast); 100 PM) was 19.3 ± 2.7% and the “Percent Cytotoxicity” value (PTC (colon); 1 nM) was 23.0 ± 4.2%. For the same compound, the “Percent Cytotoxicity” value (PTC (colon); 10 nM) was 15.9 ± 2.4%, the “Percent Cytotoxicity” value (PTC (colon); 100 nM) was 20.4 ± 4.2% and the “Percent Cytotoxicity” value (PTC (colon); 100 PM) was 13.9 ± 2.2%. The “Percent Cytotoxicity” value (SW620 (colon); SW620, 1 nM) was 29.7 ± 4.2%, the “Percent Cytotoxicity” value (SW620 (colon); SW620, 10 nM) was 30.1 ± 4.0% and the “Percent Cytotoxicity” value (SW620 (colon); SW620, 100 nM) was 25.6 ± 4.2%. The “Percent Cytotoxicity” value (SW620 (colon); SW620, 100 PM) was 38.0 ± 3.8%, the “Percent Cytotoxicity” value (HT-29 (colon); HT29, 1 nM) was 27.9 ± 2.9% and the “Percent Cytotoxicity” value (HT-29 (colon); HT29, 10 nM) was 44.4 ± 4.0%. The “Percent Cytotoxicity” value (HT-29 (colon); HT29, 100 nM) was 35.7 ± 2.8%, the “Percent Cytotoxicity” value (HT-29 (colon); HT29, 100 PM) was 42.0 ± 2.0% and the “Percent Cytotoxicity” value (PA-1 (ovary); PA-1, 1 nM) was 16.0 ± 3.9%. The “Percent Cytotoxicity” value (PA-1 (ovary); PA-1, 10 nM) was 20.9 ± 5.3%, the “Percent Cytotoxicity” value (PA-1 (ovary); PA-1, 100 nM) was 8.8 ± 1.9% and the “Percent Cytotoxicity” value (PA-1 (ovary); PA-1, 100 PM) was 25.6 ± 6.3%. For the same compound, the “Percent Cytotoxicity” value (DU145 (prostate); DU145, 1 nM) was 10.6 ± 0.9%, the “Percent Cytotoxicity” value (DU145 (prostate); DU145, 10 nM) was 22.0 ± 3.4% and the “Percent Cytotoxicity” value (DU145 (prostate); DU145, 100 nM) was 32.3 ± 3.8%. The “Percent Cytotoxicity” value (DU145 (prostate); DU145, 100 PM) was 29.3 ± 2.9%, the “Percent Cytotoxicity” value (A549 (lung); A549, 1 nM) was 20.2 ± 4.2% and the “Percent Cytotoxicity” value (A549 (lung); A549, 10 nM) was 22.2 ± 3.1%. The “Percent Cytotoxicity” value (A549 (lung); A549, 100 nM) was 30.3 ± 4.3% and the “Percent Cytotoxicity” value (A549 (lung); A549, 100 PM) was 25.2 ± 5.6%.

— patent publication US6989371B1, “Bombesin analogs for treatment of cancer” (Dabur Research Foundation, priority 1996, dated 2006)
